Measured values from patent US10525016B2, “Nutritional compositions containing an elevated level of inositol and uses thereof” (Mead Johnson Nutrition Company, priority 2015, dated 2020).

Experiments:
[1] = system: oligodendrocyte-DRG cocultures; experiment: dose-response of inositol on oligodendrocyte-DRG coculture: myelin deposition and extent; assay type: cell-based
Protocol: FIG. 4 illustrates the utility of dual-fluorescence labeling of OPCs in green and oligodendrocytes (Oligo) in red (left), as well as myelin deposition along the DRG neuronal fibers in red (right). It is to examine a dose-response of the inositol on oligodendrocyte-DRG coculture. Inositol was added to purified oligodendrocyte-DRG cocultures and cells were analyzed for effects on proliferation, survival differentiation and myelination. […] FIG. 5 illustrates the inositol effects on the control myelin extent in a dose-responsive manner. In the coculture system, neurofibers were included to validate the effects on myelin extent. […] Taken together, oligodendroglia rely on neuronal inositol for survival, proliferation, differentiation and the instruction of the generation of the appropriate number of […] internodes and the extent of wrapping.

oligodendrocytes (Oligo) = experiment: inositol on purified oligodendroglial cultures: Oligo number (MBP staining); assay type: cell-based
Protocol: FIG. 1 illustrates the functional implications of inositol in oligodendroglia survival and proliferation. Inositol was added to purified oligodendroglial cultures and cells were analyzed for effects on proliferation, survival and differentiation by immunohistochemistry under the fluorescent microscopy. OPCs were analyzed by staining with antibody against PDGFRa and visualized in green fluorescence; and oligodendrocytes with that against MBP in red. […] Depletion of inositol in the medium results in a fifty percent loss of oligodendrocyte precursor cells and thirty percent loss in oligodendrocytes.
It may relate to the different mechanisms by which the OPCs respond to higher level of inositol and to the PDGF. Taken together, it is a novel finding that inositol at higher level promotes OPCs differentiation into mature Oligo.

[2] = system: oligodendrocyte precursor cells (OPCs); experiment: inositol on purified oligodendroglial cultures: OPC number (PDGFRa staining); assay type: cell-based
Protocol: FIG. 1 illustrates the functional implications of inositol in oligodendroglia survival and proliferation. Inositol was added to purified oligodendroglial cultures and cells were analyzed for effects on proliferation, survival and differentiation by immunohistochemistry under the fluorescent microscopy. OPCs were analyzed by staining with antibody against PDGFRa and visualized in green fluorescence; and oligodendrocytes with that against MBP in red. […] Depletion of inositol in the medium results in a fifty percent loss of oligodendrocyte precursor cells and thirty percent loss in oligodendrocytes. […] A culture condition containing 40 μM inositol in which the count of the numbers of living OPCs was normalized as 1, as a baseline control. The beginnings of culture of OPCs are equal in terms of OPC number in culture dish in all conditions. Inositol was added to each OPC culture at zero, 200 nM, 1 μM, 10 μM, 40 μM, 100 μM, and 200 μM. Since the OPCs only respond to platelet-derived growth factor PDGF, a potent mitogen, for proliferation, the condition containing 40 μM inositol and PDGF was set as a positive control. […] Such a positive effect reached about 70% of that in the positive control. […] The results are graphically illustrated in FIG. 2

[3] = system: primary hippocampal neurons; experiment: synaptic development in primary hippocampal neurons (Bassoon/Homer immunostaining); assay type: cell-based, rats
Protocol: Primary hippocampal neurons were prepared from rats at E18. In brief, dissected hippocampi were incubated in 0.05% trypsin at 37° C. for 20 minutes and plated at a density of ˜30,000 cells per coverslip. Dissociated cells were plated on poly-L-lysine and incubated in a cell culture incubator with 5.0% CO2. Cytosine arabinoside was added at a final concentration of 2 μM per well 2 days in vitro to prevent glia cell overgrowth. For studies of inositol, neurons were either grown in inositol-free medium or in inositol-free medium supplemented with 40 μm inositol. After day 4 in vitro, neurons were grown either in inositol-free medium or in inositol-free medium supplemented with 40 μm or 200 μM inositol. At the first time of treatment at 4 days in vitro, the entire medium was exchanged for fresh medium containing nutrients, or control medium without nutrients. At the time of subsequent nutrient additions, approximately ½ of the medium was exchanged and replaced with nutrient-containing medium or control medium without nutrients. Neurons were processed for immunostaining at 14 days in vitro, i.e. after 10 days of chronic treatment. […] We determined this both by automated quantitative immunostaining for the presynaptic marker Bassoon or excitatory postsynaptic Homer, as shown in FIGS. 6 and 7 (p<0.05). […] Further, the experiment supports that the size of postsynaptic sites is larger when inositol is added, indicating more efficient synaptic transmission (p<0.05) (see, FIG. 9). Confocal imaging was performed on a Leica TCS SPE DM2500 microscope equipped with one spectral PMT. Fluorochromes imaged include Alexa 488, Alexa 555, and Alexa 647 (Invitrogen). Green fluorescence represents Bassoon presynaptic, red Homer postsynaptic, blue MAP2 dendrites. […] There was noticeable lack of growth and synapses which was visible while imaging.

[4] = depletion of inositol in the medium
[5] = increasing inositol from 40 μM to 200 μM, 14 days in vitro, p<0.05

## O[C@H]1[C@H](O)[C@@H](O)[C@H](O)[C@@H](O)[C@H]1O [inositol]
[1]; absence of inositol
  myelin deposition along DRG neuronal fibers: the amount of red labeling and appearance of myelin were inappropriate
[1]; absence of inositol, compared to control base medium at 40 μM
  myelin internodes formed (myelin extent): few myelin internodes were formed
[1]; baseline condition, 40 μM inositol
  myelin deposition along DRG neuronal fibers: myelin was wrapping around the neuronal fiber
[1]; inositol 200 μM
  myelin deposition along DRG neuronal fibers: more myelin has been deposited along the neuronal fibers
[1]; inositol 200 μM compared to the controls
  myelin internodes formed (myelin extent): more and longer myelin internodes
Oligodendrocytes (Oligo); absence of inositol, p<0.05
  quantification of Oligo numbers vs baseline at 40 μM inositol: significantly decreased
Oligodendrocytes (Oligo); [4]
  loss in oligodendrocytes: thirty
Oligodendrocytes (Oligo); inositol 200 nM, p<0.05
  quantification of Oligo numbers vs baseline at 40 μM inositol: significantly decreased
Oligodendrocytes (Oligo); inositol 200 μM, p<0.05
  Oligo numbers vs baseline at 40 μM inositol: rise and appear a statistical significance
[2]; 200 μM compared to the 40 μM in the base medium
  OPC and oligodendrocyte health: significantly increased
[2]; [4]
  loss of oligodendrocyte precursor cells: fifty
[2]; inositol 200 nM, p<0.05
  quantification of OPCs vs baseline control at 40 μM inositol: significantly decreased
[2]; inositol 1 μM, p<0.05
  quantification of OPCs vs baseline control at 40 μM inositol: significantly decreased
[2]; inositol 10 μM, p<0.05
  quantification of OPCs vs baseline control at 40 μM inositol: significantly decreased
[2]; inositol 200 μM
  positive effect on OPCs number relative to the positive control (40 μM inositol and PDGF): about 70%
[2]; inositol 200 μM, p<0.05
  OPCs number vs baseline control at 40 μM inositol: significantly increased
[2]; inositol at zero, p<0.05
  quantification of OPCs vs baseline control at 40 μM inositol: significantly decreased
[2]; inositol supplementation in purified oligodendroglia cultures
  oligodendroglial survival: significantly promotes oligodendroglial survival
[2]; zero to 200 μM
  overall response of OPC number to inositol: dose-dependent manner
[3]; depletion of inositol
  health of the neurons (confocal imaging): poor health of the neurons
[3]; elevated level of inositol supplement
  formation of functional synapses and overall neuron health: significantly enhances the formation of functional synapses and overall neuron health
[3]; [5]
  density of synaptic specializations, excitatory postsynaptic Homer: substantially elevates
  density of synaptic specializations, presynaptic marker Bassoon: substantially elevates
[3]; inositol 40 μM
  overall health of neurons (confocal imaging): significantly promotes the overall health of neurons
[3]; inositol 200 μM
  overall health of neurons (confocal imaging): significantly promotes the overall health of neurons
[3]; inositol added, p<0.05
  density of synaptic sites where both Bassoon and Homer co-localize: strong inositol effect
  size of postsynaptic sites: larger

## PDGF [reference compound]
Oligodendrocytes (Oligo); condition containing PDGF with 40 μM inositol, p<0.05
  Oligo number vs baseline at 40 μM inositol: decreased significantly
